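These data come from cells grown in 96-well plates and exposed to compound for 48 hours at five concentrations. At the GI50, growth is halved.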 Calls of active or inactive are those of the source. No stated cut-off is given here; in the data, active = GI50 up to about 1.1 µM and inactive = higher.
What was measured:
Assay in all cases: inhibition of tumour cell growth, NCI panel, 48 h
786-0 = test system: 786-0
A498 = test system: A498
A549 = test system: A549
ACHN = test system: ACHN
CAKI-1 = test system: CAKI-1
CCRF-CEM = test system: CCRF-CEM
COLO 205 = test system: COLO 205
DU-145 = test system: DU-145
EKVX = test system: EKVX
HCC 2998 = test system: HCC 2998
HCT-116 = test system: HCT-116
HCT-15 = test system: HCT-15
HL-60 = test system: HL-60
HOP-62 = test system: HOP-62
HOP-92 = test system: HOP-92
HT-29 = test system: HT-29
Hs-578T = test system: Hs-578T
IGROV-1 = test system: IGROV-1
K562 = test system: K562
KM12 = test system: KM12
LOX IMVI = test system: LOX IMVI
M14 = test system: M14
MCF7 = test system: MCF7
MDA-MB-231 = test system: MDA-MB-231
MDA-MB-435 = test system: MDA-MB-435
MDA-N = test system: MDA-N
MOLT-4 = test system: MOLT-4
Malme-3M = test system: Malme-3M
NCI-H226 = test system: NCI-H226
NCI-H23 = test system: NCI-H23
NCI-H460 = test system: NCI-H460
NCI-H522 = test system: NCI-H522
NCI/ADR-RES = test system: NCI/ADR-RES
OVCAR-3 = test system: OVCAR-3
OVCAR-4 = test system: OVCAR-4
OVCAR-5 = test system: OVCAR-5
OVCAR-8 = test system: OVCAR-8
PC-3 = test system: PC-3
RXF 393 = test system: RXF 393
SF-268 = test system: SF-268
SF-295 = test system: SF-295
SF-539 = test system: SF-539
SK-MEL-28 = test system: SK-MEL-28
SK-MEL-2 = test system: SK-MEL-2
SK-MEL-5 = test system: SK-MEL-5
SK-OV-3 = test system: SK-OV-3
SN12C = test system: SN12C
SNB-19 = test system: SNB-19
SNB-75 = test system: SNB-75
SR = test system: SR
SW-620 = test system: SW-620
T47D = test system: T47D
TK-10 = test system: TK-10
U-251 = test system: U-251
UACC-257 = test system: UACC-257
UACC-62 = test system: UACC-62
RPMI-8226 = test system: RPMI-8226
UO-31 = test system: UO-31

With `COC1/C=C\OC2(C)Oc3c(C)c(O)c4c(O)c(c(/C=N\OCCCc5ccccc5)c(O)c4c3C2=O)NC(=O)/C(C)=C\C=C/C(C)C(O)C(C)C(O)C(C)C(OC(C)=O)C1C` (centres undefined) the GI50 (786-0) was 3.24 µM (inactive), the GI50 (A498) was 6.93 µM (inactive) and the GI50 (A549) was 3.83 µM (inactive). For the same molecule, the GI50 (ACHN) was 2.56 µM (inactive), the GI50 (CAKI-1) was 4.32 µM (inactive) and the GI50 (CCRF-CEM) was 3.08 µM (inactive). For the same molecule, the GI50 (COLO 205) was 1.78 µM (inactive), the GI50 (DU-145) was 4.71 µM (inactive) and the GI50 (EKVX) was 4.52 µM (inactive). For the same molecule, the GI50 (HCC 2998) was 11.4 µM (inactive), the GI50 (HCT-116) was 2.3 µM (inactive) and the GI50 (HCT-15) was 3.16 µM. The GI50 (HL-60) was 3.01 µM (inactive), the GI50 (HOP-62) was 2.59 µM (inactive) and the GI50 (HOP-92) was 2.15 µM (inactive). The GI50 (HT-29) was 3.59 µM (inactive), the GI50 (Hs-578T) was 6.31 µM (inactive) and the GI50 (IGROV-1) was 2.39 µM (inactive). For the same molecule, the GI50 (K562) was 4.16 µM (inactive), the GI50 (KM12) was 4.47 µM (inactive) and the GI50 (LOX IMVI) was 3.33 µM (inactive). For the same molecule, the GI50 (M14) was 2.71 µM (inactive), the GI50 (MCF7) was 1.17 µM (inactive) and the GI50 (MDA-MB-231) was 2.25 µM (inactive). For the same molecule, the GI50 (MDA-MB-435) was 3.25 µM (inactive), the GI50 (MDA-N) was 3.44 µM (inactive) and the GI50 (MOLT-4) was 3.46 µM (inactive). The GI50 (Malme-3M) was 3.54 µM (inactive), the GI50 (NCI-H226) was 2.13 µM (inactive) and the GI50 (NCI-H23) was 3.21 µM (inactive). The GI50 (NCI-H460) was 3.49 µM (inactive), the GI50 (NCI-H522) was 3.54 µM (inactive) and the GI50 (NCI/ADR-RES) was 3.66 µM (inactive). For the same molecule, the GI50 (OVCAR-3) was 3.07 µM (inactive), the GI50 (OVCAR-4) was 3.08 µM (inactive) and the GI50 (OVCAR-5) was 6.85 µM (inactive). The GI50 (OVCAR-8) was 4.9 µM (inactive), the GI50 (PC-3) was 3.18 µM (inactive) and the GI50 (RXF 393) was 2.9 µM (inactive). The GI50 (SF-268) was 4.93 µM (inactive), the GI50 (SF-295) was 4.72 µM (inactive) and the GI50 (SF-539) was 2.93 µM (inactive). The GI50 (SK-MEL-28) was 2.06 µM (inactive), the GI50 (SK-MEL-2) was 2.18 µM (inactive) and the GI50 (SK-MEL-5) was 1.78 µM (inactive). The GI50 (SK-OV-3) was 4.42 µM (inactive), the GI50 (SN12C) was 1.81 µM (inactive) and the GI50 (SNB-19) was 6.32 µM (inactive). For the same molecule, the GI50 (SNB-75) was 2.62 µM (inactive), the GI50 (SR) was 2.81 µM (inactive) and the GI50 (SW-620) was 4.36 µM (inactive). The GI50 (T47D) was 4.45 µM (inactive), the GI50 (TK-10) was 3.23 µM (inactive) and the GI50 (U-251) was 4.36 µM (inactive). For the same molecule, the GI50 (UACC-257) was 5.74 µM (inactive) and the GI50 (UACC-62) was 2.79 µM (inactive).

For `COC(=O)c1c(C)cccc1C1CN=NC12Cc1ccc(C)c(C)c1C2=O` (centres undefined), the GI50 (786-0) was 51.3 µM (inactive), the GI50 (A498) was 36.3 µM (inactive) and the GI50 (A549) was 18.2 µM (inactive). The GI50 (ACHN) was 27.2 µM (inactive), the GI50 (CAKI-1) was > 100 µM (inactive) and the GI50 (CCRF-CEM) was 24.3 µM (inactive). For the same molecule, the GI50 (DU-145) was 54.6 µM (inactive), the GI50 (EKVX) was 12.2 µM (inactive) and the GI50 (HCC 2998) was 23.5 µM (inactive). For the same molecule, the GI50 (HCT-116) was 14.8 µM (inactive), the GI50 (HCT-15) was 23.2 µM and the GI50 (HL-60) was 8.59 µM (inactive). The GI50 (HOP-62) was 77.1 µM (inactive), the GI50 (HOP-92) was 28.6 µM (inactive) and the GI50 (HT-29) was 25.7 µM (inactive). For the same molecule, the GI50 (Hs-578T) was 37.7 µM (inactive), the GI50 (IGROV-1) was 46.2 µM (inactive) and the GI50 (K562) was 18.2 µM (inactive). The GI50 (KM12) was 34.3 µM (inactive), the GI50 (LOX IMVI) was 3.21 µM (inactive) and the GI50 (M14) was 30.5 µM (inactive). For the same molecule, the GI50 (MCF7) was 24.4 µM (inactive), the GI50 (MDA-MB-231) was 39.4 µM (inactive) and the GI50 (MDA-MB-435) was 31.4 µM (inactive). The GI50 (MDA-N) was 45.2 µM (inactive), the GI50 (MOLT-4) was 12.2 µM (inactive) and the GI50 (Malme-3M) was 28.6 µM (inactive). For the same molecule, the GI50 (NCI-H226) was 44.6 µM (inactive), the GI50 (NCI-H23) was 46.5 µM (inactive) and the GI50 (NCI-H460) was 22.8 µM (inactive). For the same molecule, the GI50 (NCI-H522) was 12.9 µM (inactive), the GI50 (NCI/ADR-RES) was 15.2 µM (inactive) and the GI50 (OVCAR-3) was 32.4 µM (inactive). For the same molecule, the GI50 (OVCAR-4) was 24.9 µM (inactive), the GI50 (OVCAR-5) was > 100 µM (inactive) and the GI50 (OVCAR-8) was 27.1 µM (inactive). The GI50 (RPMI-8226) was 9.84 µM (inactive), the GI50 (RXF 393) was 20.9 µM (inactive) and the GI50 (SF-268) was 49.4 µM (inactive). The GI50 (SF-295) was 42.7 µM (inactive), the GI50 (SF-539) was 68.9 µM (inactive) and the GI50 (SK-MEL-28) was > 100 µM (inactive). The GI50 (SN12C) was 50 µM (inactive), the GI50 (SNB-19) was 50.9 µM (inactive) and the GI50 (SNB-75) was 96.4 µM (inactive). The GI50 (SR) was 16.6 µM (inactive), the GI50 (SW-620) was 33.4 µM (inactive) and the GI50 (T47D) was 3.2 µM (inactive). For the same molecule, the GI50 (TK-10) was > 100 µM (inactive), the GI50 (U-251) was 35.2 µM (inactive) and the GI50 (UACC-257) was 26.2 µM (inactive). The GI50 (UACC-62) was 15.3 µM (inactive) and the GI50 (UO-31) was 42.4 µM (inactive).

Source: ChEMBL document CHEMBL1201862, “PubChem BioAssay data set” (2004)
